The test system of data set [1] is Human immunodeficiency virus. In words: Antiviral activity against HIV infected in human MT4 cells assessed as inhibition of virus-induced cytopathogenicity by MTT assay. The format is functional, organism-based.
Data set [2] is described as follows: Cytotoxicity against human MT4 cells assessed as reduction in cell viability by MTT assay. It counts as cell-based.
A short description of data set [3]: Selectivity index, ratio of CC50 for cytotoxicity against human MT4 cells assessed as reduction in cell viability by MTT assay to EC50 for antiviral activity against HIV infected in human MT4 cells assessed as inhibition of virus-induced cytopathogenicity by MTT assay. The note with it: read-out: Ratio CC50/EC50. It counts as toxicity, cell-based.
For data set [4], the target named is Human immunodeficiency virus type 1 integrase (Human immunodeficiency virus 1) (UniProt Q7ZJM1). In words: Inhibition of HIV integrase strand transfer activity.
The target is the same in data set [5]. Nature of the data set: Inhibition of integrase in HIV1 NL4.3 infected in human HeLaP4 cells assessed as increase in increase in 2-LTR circles at 50 fold antiviral EC50 incubated up to 60 mins by quantitative PCR analysis. The format is cell-based.
Data set [6] concerns Human immunodeficiency virus. Nature of the data set: Inhibition of reverse transcriptase in HIV1 NL4.3 infected in human HeLaP4 cells assessed as reduction in formation of reverse transcribed DNA at 50 fold antiviral EC50 incubated up to 60 mins by quantitative PCR analysis. The format is cell-based.
In data set [7] the test system is Human immunodeficiency virus. Nature of the data set: Inhibition of reverse transcriptase in HIV1 NL4.3 infected in human HeLaP4 cells assessed as reduction in formation of 2-LTRs at 50 fold antiviral EC50 incubated up to 60 mins by quantitative PCR analysis. It counts as cell-based.
Data set [8] concerns Human immunodeficiency virus. Nature of the data set: Inhibition of reverse transcriptase in HIV1 NL4.3 infected in human HeLaP4 cells assessed as reduction in integrated provirus formation at 50 fold antiviral EC50 incubated up to 60 mins by quantitative PCR analysis. The format is cell-based.
The subject of data set [9] is Human immunodeficiency virus. Nature of the data set: Inhibition of reverse transcriptase in HIV1 NL4.3 infected in human HeLaP4 cells assessed as reduction in late reverse transcription by time of addition assay. It counts as cell-based.

SMILES strings stand for the structures. Activity calls are given as the source filed them. The rule behind the calls is not given here.

Human immunodeficiency virus type 1 integrase (Human immunodeficiency virus 1), sequence (Q7ZJM1 as listed by the source): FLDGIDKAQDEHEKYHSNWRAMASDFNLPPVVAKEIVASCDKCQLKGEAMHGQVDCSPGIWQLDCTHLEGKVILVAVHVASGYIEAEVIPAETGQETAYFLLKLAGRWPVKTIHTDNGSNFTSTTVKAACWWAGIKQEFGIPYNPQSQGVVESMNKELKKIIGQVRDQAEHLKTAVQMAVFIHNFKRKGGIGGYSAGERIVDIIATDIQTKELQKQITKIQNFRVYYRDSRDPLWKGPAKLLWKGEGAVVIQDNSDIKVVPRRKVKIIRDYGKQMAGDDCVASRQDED

`CC(NC(=O)c1ccccc1)c1nn(-c2ccc(C#N)cc2)c2c1C(=O)CC(C)(C)C2` (racemic): in [1], the EC50 entry is listed as “Not Active”.

With `CC(N)c1nn(-c2ccc(C(=O)O)cc2)c2c1C(=O)CC(C)(C)C2.Cl` (racemic), the EC50 entry in [1] was “Not Active”.

In the case of `CC(NC(=O)c1ccccc1)c1nn(-c2ccc(C(N)=O)cc2)c2c1C(=O)CC(C)(C)C2` (racemic), the EC50 in data set [1] (Human immunodeficiency virus 1, MT4, read-out: EC50) stood at 2.77 µM. Further, the CC50 in data set [2] came to 119 µM. In addition, the selectivity ratio in data set [3] amounted to 68. The inhibition entry in [4] and in data set [5] was “inactive” each time. For the same compound, the inhibition entry in data set [6], in data set [7], in data set [8] and in [9] was “Active” in each case.

Take `Cc1cn([C@H]2C[C@H](N=[N+]=[N-])[C@@H](CO)O2)c(=O)[nH]c1=O`: in data set [6], the inhibition entry is “Active”.

These data come from ChEMBL document CHEMBL4316641, “Synthesis and Anti-HIV Profile of a Novel Tetrahydroindazolylbenzamide Derivative Obtained by Oxazolone Chemistry” (ACS Med Chem Lett, 2019).
